Laboratory results reported in patent publication US20200291018A1, “TAM KINASE INHIBITORS” (SYROS PHARMACEUTICALS, INC., priority 2017, published 2020).

Legend:
AXL = biological target: T1, AXL (Homo sapiens, UniProt P30530); assay: TR-FRET kinase activity assay, AXL; assay type: biochemical; conditions: ATP at Km, 60 minutes
T1 sequence (P30530 26-894): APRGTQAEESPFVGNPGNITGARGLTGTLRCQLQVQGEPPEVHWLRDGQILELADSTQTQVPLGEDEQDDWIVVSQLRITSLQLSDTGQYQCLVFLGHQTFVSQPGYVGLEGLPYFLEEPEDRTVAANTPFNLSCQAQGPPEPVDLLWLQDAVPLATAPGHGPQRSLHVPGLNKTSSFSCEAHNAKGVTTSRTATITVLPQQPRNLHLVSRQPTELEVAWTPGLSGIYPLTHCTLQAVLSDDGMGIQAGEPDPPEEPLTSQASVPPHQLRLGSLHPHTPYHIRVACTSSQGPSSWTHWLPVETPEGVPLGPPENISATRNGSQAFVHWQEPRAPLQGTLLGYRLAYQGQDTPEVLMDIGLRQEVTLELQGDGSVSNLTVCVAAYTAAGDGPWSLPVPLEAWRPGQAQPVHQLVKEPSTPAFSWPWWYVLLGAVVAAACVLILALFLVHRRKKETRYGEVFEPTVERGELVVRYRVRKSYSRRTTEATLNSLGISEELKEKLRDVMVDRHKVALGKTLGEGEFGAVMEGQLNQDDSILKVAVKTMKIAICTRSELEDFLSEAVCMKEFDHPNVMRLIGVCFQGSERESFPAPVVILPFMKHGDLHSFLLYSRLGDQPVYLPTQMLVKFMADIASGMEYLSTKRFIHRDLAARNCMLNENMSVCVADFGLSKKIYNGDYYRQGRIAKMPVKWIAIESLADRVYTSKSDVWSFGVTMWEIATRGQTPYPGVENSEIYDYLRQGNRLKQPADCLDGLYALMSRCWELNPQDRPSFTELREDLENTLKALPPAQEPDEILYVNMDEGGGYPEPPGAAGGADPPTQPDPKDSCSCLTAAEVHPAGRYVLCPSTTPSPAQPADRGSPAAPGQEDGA
In short: (§1)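 Buffer 50 mM HEPES pH 7.5/10 mM MgCl2/1 mM EGTA/0.01% Brij 35/1 mM DTT, RT. Km ATP per kinase, labeled peptide, 60 min; 12.5 mM EDTA stop; Eu-Ab 30 min dark; TR-FRET → IC50.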

MERTK = biological target: T2, MERTK (Homo sapiens, UniProt Q12866); assay: TR-FRET kinase activity assay, MERTK; assay type: biochemical; conditions: for IC50: TR-FRET activity assay, ATP at Km, 60 minutes, read-out: Mer IC50; for Mer/Flt3 ratio (FLT3 IC50/Mer IC50): ratio calculated as FLT3 IC50/Mer IC50
T2 sequence (Q12866 21-999): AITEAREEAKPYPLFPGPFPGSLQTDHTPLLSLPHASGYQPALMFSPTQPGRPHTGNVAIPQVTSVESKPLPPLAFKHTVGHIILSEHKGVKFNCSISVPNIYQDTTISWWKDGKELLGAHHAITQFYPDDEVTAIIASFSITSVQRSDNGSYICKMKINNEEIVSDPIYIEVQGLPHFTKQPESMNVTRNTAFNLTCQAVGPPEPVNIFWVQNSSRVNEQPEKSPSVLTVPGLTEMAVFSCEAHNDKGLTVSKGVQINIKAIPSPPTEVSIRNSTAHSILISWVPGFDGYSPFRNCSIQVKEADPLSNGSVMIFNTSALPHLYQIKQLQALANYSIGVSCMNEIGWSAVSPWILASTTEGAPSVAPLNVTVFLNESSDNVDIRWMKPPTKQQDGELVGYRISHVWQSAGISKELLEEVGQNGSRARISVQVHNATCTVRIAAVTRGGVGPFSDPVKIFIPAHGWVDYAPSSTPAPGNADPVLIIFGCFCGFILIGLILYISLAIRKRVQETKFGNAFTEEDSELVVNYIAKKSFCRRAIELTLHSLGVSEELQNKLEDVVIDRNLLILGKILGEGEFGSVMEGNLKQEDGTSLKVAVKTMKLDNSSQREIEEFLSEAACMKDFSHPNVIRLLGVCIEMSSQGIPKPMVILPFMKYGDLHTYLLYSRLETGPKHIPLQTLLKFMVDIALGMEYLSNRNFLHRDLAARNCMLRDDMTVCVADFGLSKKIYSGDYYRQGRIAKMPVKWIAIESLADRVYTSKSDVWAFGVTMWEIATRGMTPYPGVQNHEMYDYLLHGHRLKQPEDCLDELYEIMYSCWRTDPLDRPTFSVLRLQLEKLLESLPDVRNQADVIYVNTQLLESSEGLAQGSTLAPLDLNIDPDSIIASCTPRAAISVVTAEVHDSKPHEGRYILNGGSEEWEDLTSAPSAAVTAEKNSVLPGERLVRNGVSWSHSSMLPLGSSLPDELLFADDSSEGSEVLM
In short: as §1

COCCN1C(C)(C)CC(Oc2ncc([C@H]3CC[C@H](O)CC3)c3nc(N[C@@H](C)CCO)ncc23)CC1(C)C [Compound 380] was tested. Which IC50 (AXL) did it give?
The IC50 was 100 to 1000 nM.

And the IC50 (MERTK)?
The IC50 was no more than 100 nM.

What about the “Mer/Flt3 ratio (FLT3 IC50/Mer IC50)” value (MERTK) of the same molecule?
Its value is “+++ (a ratio of >100)”.

With COCCN1C(C)(C)CC(Oc2ncc([C@H]3CC[C@H](O)CC3)c3nc(N[C@@H](C)CF)ncc23)CC1(C)C [Compound 381] as the molecule, how does the IC50 (AXL) read?
The IC50 was no more than 100 nM.

And the IC50 (MERTK)?
Its IC50 is no more than 100 nM.

What about the “Mer/Flt3 ratio (FLT3 IC50/Mer IC50)” value (MERTK) of the same molecule?
The value was “+++ (a ratio of >100)”.

With C[C@@H](CF)Nc1ncc2c(OC3CC(C)(C)N(C)C(C)(C)C3)ncc([C@H]3CC[C@H](O)CC3)c2n1 [Compound 382] as the molecule, how does the IC50 (AXL) read?
The IC50 was 100 to 1000 nM.

And the IC50 (MERTK)?
Its IC50 is no more than 100 nM.

And the “Mer/Flt3 ratio (FLT3 IC50/Mer IC50)” value (MERTK)?
The value was “+++ (a ratio of >100)”.

What does the source list for C[C@@H](CC(F)(F)F)Nc1ncc2c(OC3CCN([C@H]4CCOC4)CC3)ncc([C@H]3CC[C@H](O)CC3)c2n1 [Compound 383]?
IC50 (AXL): 100 to 1000 nM; IC50 (MERTK): ≤ 100 nM; Mer/Flt3 ratio (FLT3 IC50/Mer IC50) (MERTK): +++ (a ratio of >100)

For COC[C@H](C)Nc1ncc2c(O[C@H]3CCN(C)C(C)(C)C3)ncc([C@H]3CC[C@H](O)CC3)c2n1 [Compound 384], which IC50 (AXL) is on record?
The IC50 was 100 to 1000 nM.

What about the IC50 (MERTK) of the same molecule?
The IC50 was no more than 100 nM.

What about the “Mer/Flt3 ratio (FLT3 IC50/Mer IC50)” value (MERTK) of the same molecule?
Its value is “+++ (a ratio of >100)”.

Which results are given for COC[C@H](C)Nc1ncc2c(O[C@@H]3CCN(C)C(C)(C)C3)ncc([C@H]3CC[C@H](O)CC3)c2n1 [Compound 385]?
IC50 (AXL): 100 to 1000 nM; IC50 (MERTK): ≤ 100 nM; Mer/Flt3 ratio (FLT3 IC50/Mer IC50) (MERTK): +++ (a ratio of >100)

How did the IC50 (AXL) turn out when C[C@@H](CC(F)(F)F)Nc1ncc2c(OC3CC(C)(C)N(C)C(C)(C)C3)ncc([C@H]3CC[C@H](O)CC3)c2n1 [Compound 386] was run?
The IC50 was no more than 100 nM.

What about the IC50 (MERTK) of the same molecule?
Its IC50 is no more than 100 nM.

What about the “Mer/Flt3 ratio (FLT3 IC50/Mer IC50)” value (MERTK) of the same molecule?
The value was “+++ (a ratio of >100)”.

Which IC50 (AXL) does the source give for COC[C@H](C)Nc1ncc2c(OC3C[C@H](C)N(C)[C@@H](C)C3)ncc([C@H]3CC[C@H](O)CC3)c2n1 (stereo partly drawn) [Compound 387] here?
Its IC50 is 100 to 1000 nM.

What about the IC50 (MERTK) of the same molecule?
The IC50 was no more than 100 nM.

And the “Mer/Flt3 ratio (FLT3 IC50/Mer IC50)” value (MERTK)?
The value was “+++ (a ratio of >100)”.

COC[C@H](C)Nc1ncc2c(OC3C[C@@H](C)N(C)[C@H](C)C3)ncc([C@H]3CC[C@H](O)CC3)c2n1 (stereo partly drawn) [Compound 388] was tested. Which IC50 (AXL) did it give?
Its IC50 is 100 to 1000 nM.

What about the IC50 (MERTK) of the same molecule?
Its IC50 is no more than 100 nM.

What about the “Mer/Flt3 ratio (FLT3 IC50/Mer IC50)” value (MERTK) of the same molecule?
The value was “+++ (a ratio of >100)”.

For C[C@@H](CC(F)(F)F)Nc1ncc2c(OC3CCN(S(C)(=O)=O)CC3)ncc([C@H]3CC[C@H](O)CC3)c2n1 [Compound 389], which IC50 (AXL) is on record?
Its IC50 is 100 to 1000 nM.

And the IC50 (MERTK)?
The IC50 was no more than 100 nM.

And the “Mer/Flt3 ratio (FLT3 IC50/Mer IC50)” value (MERTK)?
The value was “+++ (a ratio of >100)”.

For COCCN1C(C)(C)CC(Oc2ncc([C@H]3CC[C@H](O)CC3)c3nc(N[C@@H]4CCOC4)ncc23)CC1(C)C [Compound 390], which IC50 (AXL) is on record?
The IC50 was 100 to 1000 nM.

And the IC50 (MERTK)?
Its IC50 is no more than 100 nM.

What about the “Mer/Flt3 ratio (FLT3 IC50/Mer IC50)” value (MERTK) of the same molecule?
The value was “++ (a ratio of between 10 and 100)”.

How did the IC50 (AXL) turn out when CCN1C(C)(C)CC(Oc2ncc([C@H]3CC[C@H](O)CC3)c3nc(N[C@@H](C)CC(F)(F)F)ncc23)CC1(C)C [Compound 391] was run?
Its IC50 is no more than 100 nM.

What about the IC50 (MERTK) of the same molecule?
Its IC50 is no more than 100 nM.

What about the “Mer/Flt3 ratio (FLT3 IC50/Mer IC50)” value (MERTK) of the same molecule?
Its value is “+++ (a ratio of >100)”.

Which IC50 (AXL) does the source give for O[C@H]1CC[C@H](c2cnc(OC3CCOCC3)c3cnc(Nc4ccc(-c5nn[nH]n5)cc4)nc32)CC1 [Compound 392] here?
The IC50 was no more than 100 nM.

What about the IC50 (MERTK) of the same molecule?
The IC50 was no more than 100 nM.

And the “Mer/Flt3 ratio (FLT3 IC50/Mer IC50)” value (MERTK)?
The value was “+++ (a ratio of >100)”.

With COC[C@H](C)Nc1ncc2c(O[C@H]3C[C@@H](C(=O)N4CCN(C)CC4)C3)ncc([C@H]3CC[C@H](O)CC3)c2n1 [Compound 393] as the molecule, how does the IC50 (AXL) read?
Its IC50 is 100 to 1000 nM.

And the IC50 (MERTK)?
Its IC50 is no more than 100 nM.

What about the “Mer/Flt3 ratio (FLT3 IC50/Mer IC50)” value (MERTK) of the same molecule?
The value was “+++ (a ratio of >100)”.

Which results are given for C[C@@H](Nc1ncc2c(OC3CCOCC3)ncc([C@H]3CC[C@H](O)CC3)c2n1)C(F)F [Compound 394]?
IC50 (AXL): 100 to 1000 nM; IC50 (MERTK): ≤ 100 nM; Mer/Flt3 ratio (FLT3 IC50/Mer IC50) (MERTK): +++ (a ratio of >100)
